Reference: ChEMBL document CHEMBL1146974, “Identification and structure-activity relationships of a new series of Melanocortin-4 receptor antagonists” (Bioorg Med Chem Lett, 2006)

Key:
[1] = target: T1, Melanocortin receptor 4 (Homo sapiens, UniProt P32245); assay: Binding affinity to MC4R by membrane filtration assay
[2] = target: T1, Melanocortin receptor 4; assay: Antagonist activity against MC4R by cAMP functional assay
[3] = Oral bioavailability in rat; type: ADME, organism-based; conditions: in vivo
[4] = Plasma half life in iv dosed rat; type: ADME, organism-based
[5] = target: Voltage-gated inwardly rectifying potassium channel KCNH2 (Homo sapiens, UniProt Q12809); assay: Binding affinity to hERG
Sequence of Voltage-gated inwardly rectifying potassium channel KCNH2 (Q12809 whole entry): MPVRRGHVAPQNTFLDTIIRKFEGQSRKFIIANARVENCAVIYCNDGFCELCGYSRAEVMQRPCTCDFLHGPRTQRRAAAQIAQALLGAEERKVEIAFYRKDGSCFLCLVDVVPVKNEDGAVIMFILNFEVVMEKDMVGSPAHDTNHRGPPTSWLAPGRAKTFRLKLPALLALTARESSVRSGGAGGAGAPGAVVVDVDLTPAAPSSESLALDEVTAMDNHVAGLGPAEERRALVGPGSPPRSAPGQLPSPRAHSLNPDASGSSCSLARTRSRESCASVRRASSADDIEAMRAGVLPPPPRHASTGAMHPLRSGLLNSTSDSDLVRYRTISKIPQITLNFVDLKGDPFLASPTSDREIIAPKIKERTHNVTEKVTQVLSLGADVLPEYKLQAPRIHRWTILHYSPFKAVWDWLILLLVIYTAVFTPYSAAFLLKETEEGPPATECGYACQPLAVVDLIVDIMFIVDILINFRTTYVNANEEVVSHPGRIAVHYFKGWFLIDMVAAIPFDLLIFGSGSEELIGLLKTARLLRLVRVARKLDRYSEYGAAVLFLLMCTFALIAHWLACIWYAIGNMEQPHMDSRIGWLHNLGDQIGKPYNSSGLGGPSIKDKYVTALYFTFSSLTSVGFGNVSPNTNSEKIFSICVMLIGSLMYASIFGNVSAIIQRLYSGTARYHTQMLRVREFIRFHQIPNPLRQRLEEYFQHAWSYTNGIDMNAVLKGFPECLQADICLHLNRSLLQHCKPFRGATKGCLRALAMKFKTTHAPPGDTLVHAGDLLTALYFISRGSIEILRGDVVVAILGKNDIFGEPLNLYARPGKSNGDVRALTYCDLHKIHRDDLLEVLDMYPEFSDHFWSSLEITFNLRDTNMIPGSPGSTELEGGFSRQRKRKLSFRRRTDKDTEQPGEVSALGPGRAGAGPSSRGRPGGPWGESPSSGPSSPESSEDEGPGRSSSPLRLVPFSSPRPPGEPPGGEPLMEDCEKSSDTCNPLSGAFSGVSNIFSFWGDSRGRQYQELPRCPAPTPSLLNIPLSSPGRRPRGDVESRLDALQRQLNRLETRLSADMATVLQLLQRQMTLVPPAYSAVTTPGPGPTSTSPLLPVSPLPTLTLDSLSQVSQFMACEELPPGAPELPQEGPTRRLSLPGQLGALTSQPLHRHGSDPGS

T1 sequence (P32245 whole entry): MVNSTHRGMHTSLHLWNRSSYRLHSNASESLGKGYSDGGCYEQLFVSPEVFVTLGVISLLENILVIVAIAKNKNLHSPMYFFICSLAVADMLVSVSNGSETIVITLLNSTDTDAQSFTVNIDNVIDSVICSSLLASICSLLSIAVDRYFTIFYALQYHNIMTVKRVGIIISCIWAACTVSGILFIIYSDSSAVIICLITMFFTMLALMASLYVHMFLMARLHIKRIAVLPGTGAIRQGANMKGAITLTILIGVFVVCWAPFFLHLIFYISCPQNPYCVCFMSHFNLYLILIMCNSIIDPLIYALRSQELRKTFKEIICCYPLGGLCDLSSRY

Row | Ki [1] [nM] | IC50 [2] [nM] | bioavailability [3] [%] | half-life [4] [h] | SMILES | Ki [5] [nM]
1 | 21 | 390 |  |  | COc1ccc(Br)cc1CCc1c(F)cccc1C(=O)/N=C(\N)NCCCCN1CCC2CCCCC2C1 (stereo not given) | 
2 | 5.1 | 180 |  |  | COc1ccc(Br)cc1CCc1c(F)cccc1C(=O)/N=C(\N)NCCCCN(C)Cc1ccccc1 | 
3 | 80 | 5700 |  |  | COc1ccc(Br)cc1CCc1c(F)cccc1C(=O)/N=C(\N)NCCCNC1CCCCC1 | 
4 | 64 | 670 |  |  | COc1ccc(Br)cc1CCc1c(F)cccc1C(=O)NC(N)=NCCCN1CCN(C)CC1 | 
5 | 2600 |  |  |  | COc1ccc(Br)cc1CCc1c(F)cccc1C(=O)NC(N)=NCCC1CCCCC1 | 
6 | 700 | 2580 |  |  | COc1ccc(Br)cc1CCc1c(Cl)cccc1C(=O)N=C(N)N | 
7 | 0.58 | 70 |  |  | COc1ccc(Br)cc1CCc1c(F)cccc1C(=O)/N=C(\N)NCCCCN1CCCCC1 | 
8 | 770 | 8500 |  |  | COc1ccc(Br)cc1CCc1c(F)cccc1C(=O)/N=C(\N)NCC(C)C | 
9 | 13 | 31 |  |  | COc1ccc(Br)cc1CCc1c(F)cccc1C(=O)NC(N)=NCC1CCNCC1 | 
10 | 3.2 | 330 | 6.3 | 31 | COc1ccc(Br)cc1CCc1c(F)cccc1C(=O)/N=C(\N)NCCCN1CCCCC1 | 
11 | 26 | 650 |  |  | COc1ccc(Br)cc1CCc1c(F)cccc1C(=O)/N=C(\N)NCCCCN1CCc2ccccc2C1 | 
12 | 920 |  |  |  | CCCCN=C(N)NC(=O)c1cccc(F)c1CCc1cc(Br)ccc1OC | 
13 | 190 | 4500 |  |  | COc1ccc(Br)cc1CCc1c(F)cccc1C(=O)/N=C(\N)NCCN1CCCC1 | 
14 | 57 | 1200 |  |  | COc1ccc(Br)cc1CCc1c(F)cccc1C(=O)/N=C(\N)NCCCCN(C)Cc1cccc2ccccc12 | 
15 | 4.3 | 130 |  |  | CCN(CC)CCCC(C)/N=C(/N)NC(=O)c1cccc(F)c1CCc1cc(Br)ccc1OC (stereo not given) | 
16 | 2.8 | 97 |  |  | CCN1CCC(C/N=C(/N)NC(=O)c2cccc(F)c2CCc2cc(Br)ccc2OC)CC1 | 

The next lines start with the compound.

Row | SMILES | Ki [1] [nM] | IC50 [2] [nM] | bioavailability [3] [%] | half-life [4] [h] | Ki [5] [nM]
17 | CCN(CC)CCCC(C)N=C(N)NC(=O)c1cccc(F)c1CCc1cc(OC)cc(OC)c1 (stereo not given) | 14 | 170 |  |  | 
18 | CCN(CC)CCCC(C)N=C(N)NC(=O)c1cccc(F)c1CCc1ccc2ccccc2c1 (stereo not given) | 690 | 1800 |  |  | 
19 | CCN(CC)CCCC(C)/N=C(\NC(=O)c1cccc(F)c1CCc1cc(Br)ccc1OC)NC(C)C (stereo not given) | 2500 | 17000 |  |  | 
20 | CCN(CC)CCCC(C)N=C(N)NC(=O)c1cccc(F)c1CCc1ccccc1Cl (stereo not given) | 26000 | > 33000 |  |  | 
21 | COc1ccc(Br)cc1CCc1c(F)cccc1C1=NCCN1 |  |  | 4.6 | 1 | 
22 | CCN(CC)CCCC(C)N=C(N)NC(=O)c1cccc(Cl)c1CCc1cc(Br)ccc1OC (stereo not given) | 0.83 | 260 |  |  | 
23 | CCN(CC)CCCC(C)/N=C(/NC)NC(=O)c1cccc(F)c1CCc1cc(Br)ccc1OC (stereo not given) | 6300 |  |  |  | 
24 | CCN(CC)CCCC(C)/N=C(\NC(=O)c1cccc(F)c1CCc1cc(Br)ccc1OC)Nc1ccccc1 (stereo not given) | 4100 |  |  |  | 
25 | COc1ccc(Br)cc1CCc1c(Cl)cccc1C1=NCCN1 |  |  |  |  | 840
26 | CCN(CC)CCCC(C)N=C(N)NC(=O)c1cccc(F)c1OCc1cc(Br)ccc1OC (stereo not given) | 900 | 530 |  |  | 
27 | CCN(CC)CCCC(C)N=C(N)NC(=O)c1cccc(F)c1CCc1cc(Br)ccc1Cl (stereo not given) | 110 | 660 |  |  | 
28 | CCN(CC)CCCC(C)N=C(N)NC(=O)c1ccsc1CCc1cc(Br)ccc1OC (stereo not given) | 11 | 260 |  |  | 
29 | CCN(CC)CCCC(C)/N=C(/N)NC(=O)c1cccc(F)c1CCc1cccc2ccccc12 (stereo not given) | 89 | 1500 |  |  | 
